# Data taken from patent US20260295053A1, “COMPOUNDS FOR DEGRADATION AND INHIBITION OF KRAS (G12D) PROTEIN” (Shenzhen Ionova Life Science Co., Ltd., priority 2023, published 2026).
# Biological target: T1, KRAS (G12D) (Homo sapiens, UniProt P01116, G12D)
# T1 construct: in-cell western with KRAS G12D antibody after 24 h
# Test: KRAS (G12D) cellular degradation assay in AsPC-1 cells
# Format: cell-based
# Conditions: 24 hours, antibody fluorescence (Odyssey CLX), DC50 half-maximal degradation concentration
# Protocol: ASPC-1 and PK-59 cellular assays ASPC-1 (ATCC cat. CRL-1682) and PK-59 (Nanjing Cobioer, Cat. No. CBP61184) were used in KRAS cellular degradation, pERK inhibition and proliferation assays. The two cell lines were maintained following vendor's instructions. For monitoring KRAS (G12D) cellular degradation and pERK biomarker inhibition, cells were seeded into a 96-well plate with 22,000 and 16,000 cells/well for assays in ASPC-1 and PK-59, respectively. Cells were incubated at 37° C. with 5% CO2 and cell density was monitored until ^~90% confluency was reached. Compounds were serially diluted at a 1:3 ratio and dispensed into each well at final concentrations ranging from […] to 1.5 nM. After incubation for 24 hours, the culture media were removed and the cells were subjected to fixation, permeabilization and blocking (Intercept blocking buffer, Li-cor). For KRAS (G12D) degradation, the cells were treated with primary antibody (KRAS G12D antibody, Cell Signaling Technologies, Cat. No. CST14429) and for β-actin (β-actin mAb, Beyotime, Cat. No. AF-5001), and followed by secondary antibodies, Anti-rabbit IgG (H+L) (DyLight™ 800 4×PEG Conjugate) or IRDye® 680RD Goat anti-Mouse IgG. For pERK inhibition assay, cells were treated with primary antibodies for pERK (Phospho-p44/42 MAPK (Erk1/2) (Thr202/Tyr204) (D13.14.4E) XP® Rabbit mAb, Cell Signaling Technologies, Cat. No. CST-4370) and β-actin (β-actin mAb, Beyotime, Cat. No. AF-5001), and followed by secondary antibodies, Anti-rabbit IgG (H+L) (DyLight™ 800 4×PEG Conjugate) or IRDye® 680RD Goat anti-Mouse IgG. Fluorescence signals were read on Odyssey CLX instrument. For cell proliferation assays, cells were seeded into a 96-well plate at 3,500 and 800 cells/well for assays in ASPC-1 and PK-59, respectively. Cells were incubated at 37° C. with 5% CO2 for overnight. Compounds were serially diluted at a 1:3 ratio and dispensed into each well at final concentrations ranging from […] to 1.5 nM. After incubation for 6 days, cell viability reagent (CellTiter Glo, Promega, Cat. No. G7573) was added to each well and luminescence was recorded on Molecular Devices Spectramax iD3 instrument. IC50, half-maximal inhibitory concentration for pERK inhibition or cell proliferation, and DC50, half-maximal degradation concentration in KRAS (G12D) cellular degradation were determined by fitting the corresponding dose response curves using GraphPad Prism software.
# Wherein “A” means the value <10 nM, “B” means 10 nM<the value <100 nM, “C” means 100 nM<the value <1000 nM, and “D” means the value >1000 nM, in which, the value means the value of DC50 or IC50. NT means not tested.
# T1 sequence (P01116 1-188 isoform P01116-2 G12D): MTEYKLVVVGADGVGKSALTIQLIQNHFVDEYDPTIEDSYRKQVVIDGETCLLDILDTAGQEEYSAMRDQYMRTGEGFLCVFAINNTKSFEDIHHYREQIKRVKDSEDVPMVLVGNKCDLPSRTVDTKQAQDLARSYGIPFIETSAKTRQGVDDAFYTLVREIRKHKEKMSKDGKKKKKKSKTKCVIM
row,Structure (SMILES),DC50
1,"CO[C@@H](C)COc1nc(N2C[C@@H]3C[C@H]2CN3)c2cc(C3CC3)c(-c3c(C)c(F)cc4[nH]ncc34)c(OCc3ccc(-c4cn([C@H](C(=O)N5C[C@H](O)C[C@H]5C(=O)N[C@H](C#Cc5cccc6c5ncn6C)CO)C(C)C)nn4)cc3)c2n1 [Example 140, (2S,4R)-1-((2S)-2-(4-(4-(((4-((1S,4S)-2,5-diazabicyclo[2.2.1]heptan-2-yl)-6-cyclopropyl-7-(6-fluoro-5-methyl-1H-indazol-4-yl)-2-((S)-2-methoxypropoxy)quinazolin-8-yl)oxy)methyl)phenyl)-1H-1,2,3-triazol-1-yl)-3-methylbutanoyl)-4-hydroxy-N—((R)-1-hydroxy-4-(1-methyl-1H-benzo[d]imidazol-4-yl)but-3-yn-2-yl)pyrrolidine-2-carboxamide]",10 to 100 nM
2,"CO[C@@H](C)COc1nc(N2C[C@@H]3C[C@H]2CN3)c2cc(C3CC3)c(-c3c(C)c(F)cc4[nH]ncc34)c(OCc3ccc(-c4cn([C@H](C(=O)N5C[C@H](O)C[C@H]5C(=O)N[C@H](C#Cc5cc(F)cc(F)c5)CO)C(C)C)nn4)cc3)c2n1 [Example 141, (2S,4R)-1-((2S)-2-(4-(4-(((4-((1S,4S)-2,5-diazabicyclo[2.2.1]heptan-2-yl)-6-cyclopropyl-7-(6-fluoro-5-methyl-1H-indazol-4-yl)-2-((S)-2-methoxypropoxy)quinazolin-8-yl)oxy)methyl)phenyl)-1H-1,2,3-triazol-1-yl)-3-methylbutanoyl)-N—((R)-4-(3,5-difluorophenyl)-1-hydroxybut-3-yn-2-yl)-4-hydroxypyrrolidine-2-carboxamide]",10 to 100 nM
3,"CCn1nccc1-c1ccc([C@@H](NC(=O)[C@@H]2C[C@@H](O)CN2C(=O)[C@H](C(C)C)n2cc(-c3ccc(COc4c(-c5c(C)c(F)c(F)c6[nH]ncc56)c(C5CC5)cc5c(N(C)[C@H]6CCNC6)nc(OC[C@H](C)OC)nc45)cc3)nn2)[C@H](C)O)cc1 [Example 146, (2S,4R)-1-((2S)-2-(4-(4-(((6-cyclopropyl-7-(6,7-difluoro-5-methyl-1H-indazol-4-yl)-2-((S)-2-methoxypropoxy)-4-(methyl((S)-pyrrolidin-3-yl)amino)quinazolin-8-yl)oxy)methyl)phenyl)-1H-1,2,3-triazol-1-yl)-3-methylbutanoyl)-N-((1R,2S)-1-(4-(1-ethyl-1H-pyrazol-5-yl)phenyl)-2-hydroxypropyl)-4-hydroxypyrrolidine-2-carboxamide]",10 to 100 nM
4,"CCn1ncc2c(C#C[C@H](CO)NC(=O)[C@@H]3C[C@@H](O)CN3C(=O)[C@H](C(C)C)n3cc(-c4ccc(COc5c(-c6c(C)c(F)cc7[nH]ncc67)c(C6CC6)cc6c(N7C[C@@H]8C[C@H]7CN8)nc(O[C@H]7C[C@@H](OC)C7)nc56)cc4)nn3)cccc21 [Example 163, (2S,4R)-1-((2S)-2-(4-(4-(((4-((1S,4S)-2,5-diazabicyclo[2.2.1]heptan-2-yl)-6-cyclopropyl-2-((1r,3R)-3-methoxycyclobutoxy)-7-(6-fluoro-5-methyl-1H-indazol-4-yl)quinazolin-8-yl)oxy)methyl)phenyl)-1H-1,2,3-triazol-1-yl)-3-methylbutanoyl)-N—((R)-4-(1-ethyl-1H-indazol-4-yl)-1-hydroxybut-3-yn-2-yl)-4-hydroxypyrrolidine-2-carboxamide]",10 to 100 nM
5,"CCn1cc2cccc(C#C[C@H](CO)NC(=O)[C@@H]3C[C@@H](O)CN3C(=O)[C@H](C(C)C)n3cc(-c4ccc(COc5c(-c6c(C)c(F)cc7[nH]ncc67)c(C6CC6)cc6c(N7C[C@@H]8C[C@H]7CN8)nc(O[C@H]7C[C@H](OC)C7)nc56)cc4)nn3)c2n1 [Example 168, (2S,4R)-1-((2S)-2-(4-(4-(((4-((1S,4S)-2,5-diazabicyclo[2.2.1]heptan-2-yl)-6-cyclopropyl-7-(6-fluoro-5-methyl-1H-indazol-4-yl)-2-((1r,3S)-3-methoxycyclobutoxy)quinazolin-8-yl)oxy)methyl)phenyl)-1H-1,2,3-triazol-1-yl)-3-methylbutanoyl)-N—((R)-4-(2-ethyl-2H-indazol-7-yl)-1-hydroxybut-3-yn-2-yl)-4-hydroxypyrrolidine-2-carboxamide]",10 to 100 nM
6,"CCn1ncc2cccc(C#C[C@H](CO)NC(=O)[C@@H]3C[C@@H](O)CN3C(=O)[C@H](C(C)C)n3cc(-c4ccc(COc5c(-c6c(C)c(F)cc7[nH]ncc67)c(C6CC6)cc6c(N7C[C@@H]8C[C@H]7CN8)nc(O[C@H]7C[C@H](OC)C7)nc56)cc4)nn3)c21 [Example 172, (2S,4R)-1-((2S)-2-(4-(4-(((4-((1S,4S)-2,5-diazabicyclo[2.2.1]heptan-2-yl)-6-cyclopropyl-7-(6-fluoro-5-methyl-1H-indazol-4-yl)-2-((1r,3S)-3-methoxycyclobutoxy)quinazolin-8-yl)oxy)methyl)phenyl)-1H-1,2,3-triazol-1-yl)-3-methylbutanoyl)-N—((R)-4-(1-ethyl-1H-indazol-7-yl)-1-hydroxybut-3-yn-2-yl)-4-hydroxypyrrolidine-2-carboxamide]",10 to 100 nM
7,"CCn1nccc1-c1ccc([C@H](CO)NC(=O)[C@@H]2C[C@@H](O)CN2C(=O)[C@H](C(C)C)n2cc(-c3ccc(COc4c(-c5c(C)c(F)cc6[nH]ncc56)c(C5CC5)cc5c(N6CCC(C#N)CC6)nc(OC[C@H](C)OC)nc45)cc3)nn2)cc1 [Example 174, (2S,4R)-1-((2S)-2-(4-(4-(((4-(4-cyanopiperidin-1-yl)-6-cyclopropyl-7-(6-fluoro-5-methyl-1H-indazol-4-yl)-2-((S)-2-methoxypropoxy)quinazolin-8-yl)oxy)methyl)phenyl)-1H-1,2,3-triazol-1-yl)-3-methylbutanoyl)-N—((R)-1-(4-(1-ethyl-1H-pyrazol-5-yl)phenyl)-2-hydroxyethyl)-4-hydroxypyrrolidine-2-carboxamide]",10 to 100 nM
8,"CO[C@@H](C)COc1nc(N(C)[C@H]2CCNC2)c2cc(C3CCC3)c(-c3c(C)c(F)c(F)c4[nH]ncc34)c(OCc3ccc(-c4cn([C@H](C(=O)N5C[C@H](O)C[C@H]5C(=O)N[C@H](c5ccc(-c6scnc6C)cc5)[C@@H](C)O)C(C)C)nn4)cc3)c2n1 [Example 175, (2S,4R)-1-((2S)-2-(4-(4-(((6-cyclobutyl-7-(6,7-difluoro-5-methyl-1H-indazol-4-yl)-2-((S)-2-methoxypropoxy)-4-(methyl((S)-pyrrolidin-3-yl)amino)quinazolin-8-yl)oxy)methyl)phenyl)-1H-1,2,3-triazol-1-yl)-3-methylbutanoyl)-4-hydroxy-N-((1R,2R)-2-hydroxy-1-(4-(4-methylthiazol-5-yl)phenyl)propyl)pyrrolidine-2-carboxamide]",10 to 100 nM
9,"CCn1nccc1-c1ccc([C@H](CO)NC(=O)[C@@H]2C[C@@H](O)CN2C(=O)[C@H](C(C)C)n2cc(-c3ccc(COc4c(-c5c(C)c(F)cc6[nH]ncc56)c(C5CC5)cc5c(N6CCCC(C#N)CC6)nc(OC[C@H](C)OC)nc45)cc3)nn2)cc1 (stereo partly drawn) [Example 182, (2S,4R)-1-((2S)-2-(4-(4-(((4-(4-cyanoazepan-1-yl)-6-cyclopropyl-7-(6-fluoro-5-methyl-1H-indazol-4-yl)-2-((S)-2-methoxypropoxy)quinazolin-8-yl)oxy)methyl)phenyl)-1H-1,2,3-triazol-1-yl)-3-methylbutanoyl)-N—((R)-1-(4-(1-ethyl-1H-pyrazol-5-yl)phenyl)-2-hydroxyethyl)-4-hydroxypyrrolidine-2-carboxamide]",10 to 100 nM
10,"CCn1nccc1-c1ccc([C@H](CO)NC(=O)[C@@H]2C[C@@H](O)CN2C(=O)[C@H](C(C)C)n2cc(-c3ccc(COc4c(-c5c(C)c(F)cc6[nH]ncc56)c(C5CC5)cc5c(N6CCNCC[C@@H]6C)nc(OC[C@H](C)OC)nc45)cc3)nn2)cc1 [Example 183, (2S,4R)-1-((2S)-2-(4-(4-(((6-cyclopropyl-7-(6-fluoro-5-methyl-1H-indazol-4-yl)-2-((S)-2-methoxypropoxy)-4-((S)-7-methyl-1,4-diazepan-1-yl)quinazolin-8-yl)oxy)methyl)phenyl)-1H-1,2,3-triazol-1-yl)-3-methylbutanoyl)-N—((R)-1-(4-(1-ethyl-1H-pyrazol-5-yl)phenyl)-2-hydroxyethyl)-4-hydroxypyrrolidine-2-carboxamide]",10 to 100 nM
